What is called mortality is the share of the test organisms that died.

Each structure is given as a SMILES string. Like-named read-outs stand apart in the source and are kept apart here.

Results on nine compounds are retold here after US4049660A, “N-substituted derivatives of 4 (N-piperazinylmethyl) spiro dibenzocycloheptadi- (or tri-) ene-5, 2-dioxolane (1,3) their method of preparation and their application in therapeutics” (Delalande S.A., priority 1971, dated 1977).

For series [1], the system named is ptosis caused by reserpine. Put plainly: Anti-depressive: antagonism against ptosis caused by intravenous reserpine. The series is classed as in vivo. Particulars: for ED50: po, Table XII, read-out: Antagonism against ptosis caused by reserpine, DE50. As to the method:
(§1) In this regard, the compounds of formula I differ unexpectedly from the compounds of U.S. Pat. No. 3,726,900, as shown by comparative testing.
(§2) The anti-depressive properties of additional analog compounds were tested by the same tests. In these tests, the comparison compounds had the formula [drawing 28] The specific compounds tested and the test results are indicated in Table XIII.

Series [2] has as its system bronchoconstrictions provoked by serotonine. As to the kind of experiment: Antiserotonine: bronchoconstrictions provoked by intravenous serotonine in guinea pigs (Konzett and Rossler test). The series is classed as in vivo. As to conditions: Cavia porcellus, serotonine bronchoconstriction, read-out: Test of Konzett and Rossler DE50. The source says:
(§3) For purposes of comparison, compounds of the formula (I) were compared, as to their antiserotonine properties, with a respresentative sampling of compounds disclosed in U.S. Pat. No. 3,726,900. The comparison compounds tested have the formula [drawing 23]

Series [3] has as its system lethal effect of yohimbine. Put plainly: Anti-depressive: potentialization of lethal effect of yohimbine. Particulars: Table XII. The series is classed as in vivo.
Series [4] is described as follows: Acute toxicity / mortality, oral, mice. The series is classed as in vivo. Particulars: mouse, in vivo; for LD50: mice, oral, Table XI, read-out: LD50 (mice); for mortality: read-out: Percentage of mortality with mice. The source says:
(§4) As is shown by the preceding results and by those given in Table XIV below, the difference between pharmacologically active doses and lethal doses is sufficiently great to allow the use of compounds of formula (I) in therapeutics.

The subject of series [5] is ventricular fibrillations caused by inhaling chloroform. As to the kind of experiment: Antiarythmic: ventricular fibrillations caused by inhaling chloroform in mouse. The series is classed as in vivo. Particulars: ip, intraperitoneal, read-out: Antagonism to fibrillations caused by chloroform with a mouse, DE50. The source says:
Administered intraperitoneally, the compounds of formula (I) are able to protect the mouse against ventricular fibrillations caused by inhaling chloroform.

The next series has as its system urinary elimination. As to the kind of experiment: Diuretic: volume of urine in mouse. The series is classed as in vivo. Particulars: 4 hours, versus controls, read-out: Percentage increase in urinary elimination; for change in vivo at 50 mg/kg: 50 mg/kg/PO; for change in vivo at 12.5 mg/kg: 12.5 mg/kg/PO. As to the method:
The compounds of formula (I) administered orally to a mouse simultaneously with a volume of 1 ml of sodium chloride isotonic solute per 25 g of body weight are able to cause an increase of the volume of urine given compared with controls, this volume being measured for the 4 hours following administration.

Series [6] relates to painful stretchings following intraperitoneal injection of acetic acid. Put plainly: Analgesic: painful stretchings following intraperitoneal acetic acid in mouse. Particulars: 100 mg/kg/PO, read-out: Percentage reduction in the number of painful stretchings. The series is classed as in vivo. The source says:
The compounds of formula (I) administered orally to a mouse are capable of reducing the number of painful stretchings following the intraperitoneal injection of acetic acid.

The test system of series [7] is gastric ulcers (Shay ulcers). As to the kind of experiment: Antiulcerous: gastric ulcers caused in a rat by ligature of the pylorus (Shay ulcers). The series is classed as in vivo. Particulars: 50 mg/kg, intraduodenal. As to the method: Compounds of formula (I) administered intraduodenally reduce the size of gastric ulcers caused in a rat by ligature of the pylorus (Shay ulcers). As examples, the intradeuodenal administration of 50 mg/kg of the compounds of code numbers 72143 and 7251 bring about a 70% and 65% reduction respectively of the Shay ulcer.

The next series deals with mice. As to the kind of experiment: Acute toxicity / mortality, oral, mice. The series is classed as in vivo. As to conditions: oral; Table XII.
Source text: as §4

The subject of series [8] is isolated duodenum of a rat (barium chloride). As to the kind of experiment: Spasmolytic: contraction by barium chloride of isolated duodenum of a rat. The procedure:
Compounds of formula I, introduced in the survival medium, are capable of opposing the contacting action of barium chloride on the isolated duodenum of a rat. This activity is determined either by taking papaverine as the standard or by calculating the DE50 of the compound tested.

Series [9] concerns isolated fundus of rats (serotonine). Put plainly: Antiserotonine: contractions of the isolated fundus of rats provoked by serotonine. Particulars: in vitro.
Source text: as §3

Series [10] relates to explorations in the escape enclosure. As to the kind of experiment: Sedative: number of explorations in the escape enclosure, mouse. Particulars: 100 mg/kg/PO. The series is classed as in vivo. The procedure: The compounds of formula (I) administered orally to a mouse reduce the number of explorations in the escape enclosure. As examples, the administration of 100 mg/kg/PO of the compounds of code numbers 71562 and 72142 bring about a 40% reduction in the number of explorations in the escape enclosure in each case.

Series [11] relates to coronary vessels of the isolated heart of a guinea pig. Put plainly: Vasodilatory: flow in coronary vessels of isolated heart of a guinea pig. Particulars: 0.5 μg/ml in perfusion liquid. The procedure: The compounds of formula (I) are able to increase the flow in the coronary vessels of the isolated heat of a guinea pig when they are added to the perfusion liquid of this organ. As an example, by adding 0.5 μg/ml of the compound code number 71562 to the perfusion liquid of the isolated heart of a guinea pig, a 45% increase in the flow of the coronary vessels was observed.

The test system of series [12] is isolated tied uterus (serotonine). As to the kind of experiment: Antiserotonine: contractions of the isolated tied uterus provoked by serotonine. Particulars: in vitro.
Source text: as §3

Series [13] deals with isolated ileum of a guinea pig (histamine). As to the kind of experiment: Antihistamine: contraction by histamine of isolated ileum of a guinea pig. As to the method:
The compounds of formula (I) introduced in the survival medium are able to oppose the contracting action of histamine on the isolated ileum of a guinea pig. This activity is calculated by the DE50 of the tested compounds.

The test system of series [14] is lethal effect of yohimbine. Put plainly: Anti-depressive: potentialization of lethal effect of yohimbine. The series is classed as in vivo. Particulars: at 100 mg/kg/PO. The procedure: as §1, §2
In series [15] the test system is local edema caused by carraghenine. Put plainly: Antiinflammatory: local plantar edema caused by carraghenine in rat. The series is classed as in vivo. The source says:
These properties bring about a reduction of the local edema, caused by injecting a rat under the plantar with a phlogogenic agent such as carraghenine, following oral administration of compounds of formula (I).

The test system of series [16] is cough caused by stimulation of the upper laryngeal nerve. Put plainly: Anti-cough: cough caused by stimulation of the upper laryngeal nerve in an anaesthetized cat. The series is classed as in vivo. As to conditions: 25 mg/kg/ID.
Series [17] deals with respiratory depression caused by morphine. As to the kind of experiment: Respiratory analeptic: respiratory depression caused by morphine in anaesthetized guinea pig. As to conditions: 5 mg/kg/IV. The series is classed as in vivo. The procedure: The compounds of formula (I) administered intravenously to an anaesthetized guinea pig are capable of opposing respiratory depression caused by morphine. As an example, with a dose of 5 mg/kg/IV, compound 70358 increased respiratory frequency by 65%.

Where [18] appears, read: at 50 mg/kg/PO, result in words.

As to `CN(C)CC1COC2(O1)c1ccccc1C=Cc1ccccc12` (centres unmarked) [compound 70312, reference compound], the figures for the ED50 in series [1] and in series [2] were 13 mg/kg and 0.43 mg/kg, respectively. Further, the “Potentialization of lethal effect of yohimbine, DE50” value in [3] is reported as 46 mg/kg/PO. Further, the LD50 in series [4] came to 480 mg/kg.

For `CN(C)C(=O)CN1CCN(CC2COC3(O2)c2ccccc2C=Cc2ccccc23)CC1` (centres unmarked) [compound 7251], the “Antagonism against ptosis caused by reserpine” value (from here on “Antagonism … by reserpine”) in series [1] (setting [18]) is listed as “Inactive”. The ED50 in [5] was 100 mg/kg. Also, the change in vivo at 50 mg/kg in the series on urinary elimination turned out to be 45%. Besides, in [6], the inhibition in vivo at 100 mg/kg was found to be 50%. The “Reduction of the Shay ulcer” value in series [7] is listed as 65%. Further, the LD50 is > 2000 mg/kg/P.O in the series with mice and > 2000 mg/kg in series [4]. The mortality in series [4] (2000 mg/kg/PO) came out at 0%. In [8], the “DE50 (spasmolytic)” value turned out to be 3.50 µg/mL.

Consider `CN(C)CC1COC2(O1)c1ccccc1CCc1ccccc12` (centres unmarked) [compound 69257, reference compound], for which the ED50 in series [1] came to 35 mg/kg; in [2], 0.4 mg/kg. The “Potentialization of lethal effect of yohimbine, DE50” value in series [3] was determined as 10 mg/kg/PO. For the same compound, the LD50 in series [4] is 550 mg/kg.

On to `O=C(CN1CCN(CC2COC3(O2)c2ccccc2C=Cc2ccccc23)CC1)N1CCCC1` (centres unmarked) [compound 71562], for which the Antagonisms against contractions of fundus of rat, DE50 in series [9] stood at 0.1 µg/mL. Also, in [5], the ED50 turned out to be 125 mg/kg. Also, the “Reduction in the number of explorations in the escape enclosure” value in series [10] turned out to be 40%. Besides, the “Increase in the flow of the coronary vessels” value in series [11] was found to be 45%. In the series on urinary elimination, the change in vivo at 50 mg/kg was 70%. Besides, the inhibition in vivo at 100 mg/kg in [6] turned out to be 47%. The mortality in series [4] (2000 mg/kg/PO) is ~50%. Besides, the LD50 in series [4] was found to be 2000 mg/kg.

Compound `O=C(CN1CCN(CC2COC3(O2)c2ccccc2C=Cc2ccccc23)CC1)N1CCOCC1` (centres unmarked) [compound 71564] registered an Antagonisms against contractions of fundus of rat, DE50 in series [9] of 0.74 µg/mL. For the same compound, the ED50 in series [5] came to 200 mg/kg; in series [2], 0.05 mg/kg. Also, the Antagonisms against contractions of tied uterus, DE50 in series [12] turned out to be 0.001 µg/mL. In addition, in the series with urinary elimination, the change in vivo at 12.5 mg/kg amounted to 50%. Further, the mortality in series [4] (3500 mg/kg/PO) was ~50%. Also, the LD50 in [4] was found to be 3500 mg/kg. Besides, the “DE50 (spasmolytic)” value in series [8] came to 2.50 µg/mL.

On to `CCCNC(=O)CN1CCN(CC2COC3(O2)c2ccccc2C=Cc2ccccc23)CC1` (centres unmarked) [compound 72142], for which, in [1] (at 100 mg/kg/PO), the “Antagonism … by reserpine” value is reported as “Inactive”. In addition, the values for the ED50 in series [5] and in series [2] were 85 mg/kg and 0.6 mg/kg, respectively. Further, in series [10], the “Reduction in the number of explorations in the escape enclosure” value was 40%. The “Antihistamine activity DE50” value in series [13] was 0.6 µg/mL. Besides, the change in vivo at 50 mg/kg with urinary elimination came to 55%. In addition, the inhibition in vivo at 100 mg/kg in [6] is 70%. The “Potentialization of lethal effect of yohimbine” value in [14] came to 40%. Also, in series [4] (1650 mg/kg/PO), the mortality is ~50%. Moreover, in series [4], the LD50 came out at 1650 mg/kg. In addition, in series [8], the “DE50 (spasmolytic)” value is 2.50 µg/mL.

Take `OCC(O)CN1CCN(CC2COC3(O2)c2ccccc2C=Cc2ccccc23)CC1` (centres unmarked) [compound 72196]: the “Percentage reduction of the edema” value in [15] (100 mg/kg/PO) amounted to 70%. For the same compound, in series [13], the “Antihistamine activity DE50” value turned out to be 1 µg/mL. Also, the change in vivo at 12.5 mg/kg in the series on urinary elimination stood at 40%. Further, the inhibition in vivo at 100 mg/kg in series [6] came out at 45%. For the same compound, the mortality in series [4] (1100 mg/kg/PO) was ~50%. The LD50 in series [4] turned out to be 1100 mg/kg. Further, in series [8], the “DE50 (spasmolytic)” value amounted to 0.25 µg/mL.

As to `CN1CCN(CC2COC3(O2)c2ccccc2CCc2ccccc23)CC1` (centres unmarked) [compound 70358], the “Antagonism … by reserpine” value in series [1] (at 100 mg/kg/PO) was “Inactive”. In addition, in series [6], the inhibition in vivo at 100 mg/kg turned out to be 43%. Moreover, in series [16], the “Reduction of cough, duration” value is > 60 mm and the “Reduction of cough, intensity” value came to 100%. Further, the “Increase in respiratory frequency” value in series [17] is 65%. The “Potentialization of lethal effect of yohimbine” value in series [14] turned out to be 40%. Besides, the mortality in series [4] (1000 mg/kg/PO) was ~50%. Besides, in series [4], the LD50 is 1000 mg/kg. In addition, in series [8] (relative to papaverine as the standard), the Spasmolytic activity was 1.5 × papaverine.

Regarding `CN1CCN(CC2COC3(O2)c2ccccc2C=Cc2ccccc23)CC1` (centres unmarked) [compound 72143], the “Antagonism … by reserpine” value in series [1] (setting [18]) is “Inactive”. Further, the “Percentage reduction of the edema” value in [15] (30 mg/kg/PO) was 70%. Further, in series [13], the “Antihistamine activity DE50” value is 0.25 µg/mL. Also, in the series with urinary elimination (25 mg/kg/PO), the change in vivo at 25 mg/kg amounted to 70%. Also, the “Reduction of the Shay ulcer” value in [7] stood at 70%. For the same compound, the mortality in series [4] (300 mg/kg/PO) is ~50%. In [4], the LD50 was 300 mg/kg. Besides, the “DE50 (spasmolytic)” value in [8] amounted to 3.75 µg/mL.
